Measurements: publication PMC11626197 (Proceedings of the National Academy of Sciences of the …, 2024)
Numbered stars: 1 amine (or outer) side, 2 acyl side, 3 side chain; on linkers, the order of the positions; unused ones are H or OH. Bridge positions count the residues as written; N and C are the ends. Square brackets hold non-standard residues; d marks the D form. Ends that are not written are not given here. Peptide text beside a SMILES is read from it. ξ: configuration not given here. ξLeu(ψCOCO) = CC(C)CC(N[*:1])C(=O)C(=O)[*:2]; X1 = CSCCC(N[*:1])C(=O)C(=O)[*:2]

What was measured:
[1] = system: HeLa; assay: Cell detachment in HeLa cells; type: cell-based; details: HeLa cell line
[2] = system: Huh7; assay: Cell detachment in Huh7 cells; type: cell-based; details: Huh7 cell line
[3] = system: herpes simplex virus (HSV); details: for IC50: 42 h; for antiviral activity: HSV, result in words
[4] = system: lymphocytic choriomeningitis virus (LCMV); details: for IC50: 1 h
[5] = system: MC57G fibroblast cells; details: for cytotoxic effects: LIVE/DEAD staining, 2 days post-treatment
[6] = target: chymotrypsin (Bos taurus, UniProt P00766); assay: Chymotrypsin inhibition assay; type: biochemical; details: for protease inhibitory activity: chymotrypsin, result in words
[7] = target: T1, human neutrophil elastase (Homo sapiens, UniProt P08246); assay: Human neutrophil elastase inhibition assay; type: biochemical; details: for protease inhibitory activity: human neutrophil elastase, result in words
T1 sequence (P08246 30-267): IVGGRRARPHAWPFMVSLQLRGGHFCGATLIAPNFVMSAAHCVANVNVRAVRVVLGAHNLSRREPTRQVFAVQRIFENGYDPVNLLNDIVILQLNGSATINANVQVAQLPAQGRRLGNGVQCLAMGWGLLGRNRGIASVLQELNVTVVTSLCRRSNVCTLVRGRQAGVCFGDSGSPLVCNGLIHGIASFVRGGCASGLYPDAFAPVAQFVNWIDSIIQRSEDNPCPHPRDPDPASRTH

[8] = target: human cathepsin B (Homo sapiens, UniProt P07858); assay: Cathepsin B inhibition assay; type: biochemical; details: for protease inhibitory activity: cathepsin B, result in words
[9] = system: influenza A virus (IAV); assay: Antiviral assay against IAV; type: cell-based, IAV strain A/WSN/1933 (H1N1); details: result in words

Row | Compound | cell detachment [1] | cell detachment [2] | IC50 [3] | IC50 [4] | cytotoxic effects [5] | concentration at which cell detachment from the assay plates was observed ([5]; low levels / slight detachment) | protease inhibitory activity [6] | protease inhibitory activity [7] | protease inhibitory activity [8] | antiviral activity [9] | antiviral activity [3] | antiviral activity [4] | IC50 [6] | IC50 [7] | IC50 [8]
1 | CC[C@H](C)[C@H](N)C(=O)N[C@@H](CC(N)=O)C(=O)N[C@@H](C)C(=O)N[C@H](C(=O)NCC(=O)N[C@@H](CCC(N)=O)C(=O)N[C@@H](CCCNC(=N)N)C(=O)N[C@H](C(=O)N[C@@H](CC(=O)O)C(=O)N[C@@H](CO)C(=O)N[C@@H](CO)C(=O)N[C@H](C(=O)N[C@@H](Cc1ccccc1)C(=O)N[C@H](C(=O)N[C@@H](Cc1c[nH]cn1)C(=O)N[C@H]1CSSC[C@@H](C(=O)NCC(=O)N[C@H](C(=O)N[C@@H](C)C(=O)NC(CC(C)C)C(=O)C(=O)NCC(=O)N[C@@H](CO)C(=O)N[C@H](C(=O)N[C@H](C(=O)N[C@@H](CC(=O)O)C(=O)N2CCC[C@H]2C(=O)N[C@@H](Cc2c[nH]cn2)C(=O)N[C@@H](CCCNC(=N)N)C(=O)N[C@@H](Cc2ccccc2)C(=O)N[C@@H](CC(=O)O)C(=O)N[C@@H](CCSC)C(=O)N[C@@H](CC(C)C)C(=O)N2CCC[C@H]2C(=O)O)[C@@H](C)CC)C(C)C)C(C)C)NC(=O)[C@H](C(C)C)NC(=O)[C@H](Cc2ccccc2)NC(=O)[C@H](Cc2ccccc2)NC(=O)[C@H](CC(=O)O)NC1=O)[C@@H](C)O)C(C)C)[C@@H](C)CC)[C@@H](C)O (stereo partly shown) [Compound 4, RasA*-Tyn] (H-INATGQRIDSSVFTHCDFFVCGVA[ξLeu(ψCOCO)]GSVIDPHRFDMLP-OH; disulfide 16-21; N-terminus assumed) | not detected | not detected | 28.8 µM | 15.2 µM | no significant cytotoxic effects | above 50 µM | – | – | – | – | – | – | – | – | –
2 | CC[C@H](C)[C@H](N)C(=O)N[C@@H](CC(N)=O)C(=O)N[C@@H](C)C(=O)N[C@H](C(=O)NCC(=O)N[C@@H](CCC(N)=O)C(=O)N[C@@H](CCCNC(=N)N)C(=O)N[C@H](C(=O)N[C@@H](CC(=O)O)C(=O)N[C@@H](CO)C(=O)N[C@@H](CO)C(=O)N[C@H](C(=O)N[C@@H](Cc1ccccc1)C(=O)N[C@H](C(=O)N[C@@H](Cc1c[nH]cn1)C(=O)N[C@H]1CSSC[C@@H](C(=O)NCC(=O)N[C@H](C(=O)N[C@@H](C)C(=O)N[C@@H](CC(C)C)C(=O)N[C@@H](Cc2ccc(O)cc2)C(=O)NCC(=O)N[C@@H](CO)C(=O)N[C@H](C(=O)N[C@H](C(=O)N[C@@H](CC(=O)O)C(=O)N2CCC[C@H]2C(=O)N[C@@H](Cc2c[nH]cn2)C(=O)N[C@@H](CCCNC(=N)N)C(=O)N[C@@H](Cc2ccccc2)C(=O)N[C@@H](CC(=O)O)C(=O)N[C@@H](CCSC)C(=O)N[C@@H](CC(C)C)C(=O)N2CCC[C@H]2C(=O)O)[C@@H](C)CC)C(C)C)C(C)C)NC(=O)[C@H](C(C)C)NC(=O)[C@H](Cc2ccccc2)NC(=O)[C@H](Cc2ccccc2)NC(=O)[C@H](CC(=O)O)NC1=O)[C@@H](C)O)C(C)C)[C@@H](C)CC)[C@@H](C)O [Compound 6, RasA*] (H-INATGQRIDSSVFTHCDFFVCGVALYGSVIDPHRFDMLP-OH; disulfide 16-21; N-terminus assumed) | – | – | > 200 µM | > 200 µM | – | – | did not exhibit any protease inhibitory and antiviral activity | did not exhibit any protease inhibitory and antiviral activity | did not exhibit any protease inhibitory and antiviral activity | did not exhibit any protease inhibitory and antiviral activity | did not exhibit any protease inhibitory and antiviral activity | did not exhibit any protease inhibitory and antiviral activity | – | – | –
3 | GTVTGSILTPIDYGCFNPFLCSVAMYGGVIDPIRFPNAWREL (disulfide 15-21) [Compound 5, G-RcsA*] | – | – | > 200 µM | > 200 µM | – | – | did not exhibit any protease inhibitory and antiviral activity | did not exhibit any protease inhibitory and antiviral activity | did not exhibit any protease inhibitory and antiviral activity | did not exhibit any protease inhibitory and antiviral activity | did not exhibit any protease inhibitory and antiviral activity | did not exhibit any protease inhibitory and antiviral activity | – | – | –
4 | GTVTGSILTPIDYGCFNPFLCSVA[X1]GGVIDPIRFPNAWREL (disulfide 15-21) [Compound 3, G-RcsA*-Tyn] | – | – | 69.7 µM | 37 µM | no significant cytotoxic effects | – | – | – | – | – | – | – | 9.2 µM | 5.76 µM | 3.74 µM
